Tested on: HCV 1b-Con1 replicon
Assay: HCV 1b-Con1 replicon assay in the presence of 5% FBS
Format: cell-based
Settings: Hepatitis C virus

SMILES	EC50
COC(=O)N[C@H](C(=O)N1CCC[C@H]1c1nc2cc([C@H]3CC[C@H](c4ccc5[nH]c([C@@H]6CCCN6C(=O)[C@@H](NC(=O)OC)C(C)C)nc5c4)N3c3cc(F)c(N4CCC(c5ccc(F)c(F)c5)CC4)c(F)c3)ccc2[nH]1)C(C)C [Example 3.44, methyl {(2S)-1-[(2S)-2-{5-[(2R,5R)-1-{4-[4-(3,4-difluorophenyl)piperidin-1-yl]-3,5-difluorophenyl}-5-{2-[(2S)-1-{(2S)-2-[(methoxycarbonyl)amino]-3-methylbutanoyl}pyrrolidin-2-yl]-1H-benzimidazol-5-yl}pyrrolidin-2-yl]-1H-benzimidazol-2-yl}pyrrolidin-1-yl]-3-methyl-1-oxobutan-2-yl}carbamate]	< 0.1 nM
COC(=O)N[C@H](C(=O)N1CCC[C@H]1c1nc2cc([C@@H]3CC[C@@H](c4ccc5[nH]c([C@@H]6CCCN6C(=O)[C@@H](NC(=O)OC)[C@@H](C)OC)nc5c4)N3c3ccc(N4CCCCC4)c(F)c3)ccc2[nH]1)[C@@H](C)OC [Example 3.16, methyl {(2S,3R)-1-[(2S)-2-{5-[(2S,5S)-1-[3-fluoro-4-(piperidin-1-yl)phenyl]-5-(2-{(2S)-1-[N-(methoxycarbonyl)-O-methyl-L-threonyl]pyrrolidin-2-yl}-1H-benzimidazol-5-yl)pyrrolidin-2-yl]-1H-benzimidazol-2-yl}pyrrolidin-1-yl]-3-methoxy-1-oxobutan-2-yl}carbamate]	0.1 to 1 nM
COC(=O)N[C@H](C(=O)N1CCC[C@H]1c1nc2cc(F)c([C@H]3CC[C@H](c4cc5[nH]c([C@@H]6CCCN6C(=O)[C@@H](NC(=O)OC)C(C)C)nc5cc4F)N3c3cc(F)c(N4CCN(c5c(F)cccc5F)CC4)c(F)c3)cc2[nH]1)C(C)C [Example 6.16, methyl {(2S)-1-[(2S)-2-{6-[(2R,5R)-1-{4-[4-(2,6-difluorophenyl)piperazin-1-yl]-3,5-difluorophenyl}-5-{5-fluoro-2-[(2S)-1-{(2S)-2-[(methoxycarbonyl)amino]-3-methylbutanoyl}pyrrolidin-2-yl]-1H-benzimidazol-6-yl}pyrrolidin-2-yl]-5-fluoro-1H-benzimidazol-2-yl}pyrrolidin-1-yl]-3-methyl-1-oxobutan-2-yl}carbamate]	< 0.1 nM
COC(=O)N[C@H](C(=O)N1CCC[C@H]1c1nc2cc([C@H]3CC[C@H](c4ccc5[nH]c([C@@H]6CCCN6C(=O)[C@@H](NC(=O)OC)C(C)C)nc5c4)N3c3ccc(-c4ccccn4)cc3)ccc2[nH]1)C(C)C [Example 3.1, methyl {(2S)-1-[(2S)-2-(5-{(2R,5R)-5-{2-[(2S)-1-{(2S)-2-[(methoxycarbonyl)amino]-3-methylbutanoyl}pyrrolidin-2-yl]-1H-benzimidazol-5-yl}-1-[4-(pyridin-2-yl)phenyl]pyrrolidin-2-yl}-1H-benzimidazol-2-yl)pyrrolidin-1-yl]-3-methyl-1-oxobutan-2-yl}carbamate]	< 0.1 nM
COC(=O)N[C@H](C(=O)N1CCC[C@H]1c1nc2cc([C@H]3CC[C@H](c4ccc5[nH]c([C@@H]6CCCN6C(=O)[C@@H](NC(=O)OC)C(C)C)nc5c4)N3c3ccc(N4CCC(c5ccccc5)CC4)cc3)ccc2[nH]1)C(C)C [Example 4.25, methyl {(2S)-1-[(2S)-2-(5-{(2R,5R)-5-{2-[(2S)-1-{(2S)-2-[(methoxycarbonyl)amino]-3-methylbutanoyl}pyrrolidin-2-yl]-1H-benzimidazol-5-yl}-1-[4-(4-phenylpiperidin-1-yl)phenyl]pyrrolidin-2-yl}-1H-benzimidazol-2-yl)pyrrolidin-1-yl]-3-methyl-1-oxobutan-2-yl}carbamate]	0.1 to 1 nM

From patent US20120220562A1, “Anti-Viral Compounds” (ABBOTT LABAORATORIES, priority 2011, published 2012)
